Results reported in patent US6861528B2, “Carboxylated heterocyclic compounds and methods of synthesis” (R.T. Alamo Ventures I, LLC, priority 2002, dated 2005).

System: Protein Serine/Threonine Kinase PKC, non-selective
Experiment: Protein Serine/Threonine Kinase PKC, non-selective enzyme assay ([32P]histone quantitated)
Type: biochemical
Conditions: 1% DMSO vehicle, rat brain enzyme, histone substrate
From the text: In this example, carboxyflosequinan was subjected to biochemical enzyme assays and radioligand binding assays to determine its percent inhibition of a variety of enzyme activities. Tamaoki and Nakano “Potent and specific inhibitors of protein kinase C of microbial origin” Biotechnology 8:732 (1990); Wilkinson et al. “Isoenzyme specificity of bisindolymaleimides, selective inhibitors of protein kinase C” Biochem. J. 294:335 (1993); Tamaki et al. “Staurosporine, a potent inhibitor of phospholipid/Ca++ dependent protein kinase” Biochem. Biophys. Res. Comm, 135:397 (1986). A brief summary of the conditions for each assay is provided below:
Protein Serine/Threonine Kinase PKC, non-selective: The enzyme was obtained from rat brain and the substrate was 370 μg/ml histone. The reaction was pre-incubated 5 min at 25° C., followed by a 15 min incubation at 25° C. in a buffer of 20 mM Tris-HCl, […] and 0.1 mM CaCl2.2HO, pH 7.4. [^32P]histone was quantitated.
FIG. 3 projects data for carboxyflosequinan in the assays described above. In these protein kinase assays, carboxyflosequinan was used in varying concentrations (in 1% DMSO as the vehicle). For the protein serine/threonine kinase (PKC, non-selective), carboxyflosequinan was tested at a concentrations of 100 μM, 300 μM, and 1000 μM. […] (See, FIG. 3).

inhibition of protein serine/threonine kinase (PKC, non-selective) (100 μM carboxyflosequinan): greater than 50% | inhibition of protein serine/threonine kinase (PKC, non-selective) (300 μM carboxyflosequinan): greater than 50% | inhibition of protein serine/threonine kinase (PKC, non-selective) (1000 μM carboxyflosequinan): greater than 50%
Structure (SMILES): Cn1cc([S+]([O-])CC(=O)O)c(=O)c2ccc(F)cc21 (stereo not drawn) [carboxyflosequinan, 3-carboxymethylsulfinyl-7-fluoro-1-methyl-4-quinolone]
